From PMC10208570, “Peptidomimetic antibiotics disrupt the lipopolysaccharide transport bridge of drug-resistant Enterobacteriaceae” (Science Advances, 2023)
Values after ≈ are worked out from the molar mass of the structure shown. Read-outs that look alike come from different tables or passages of the source.

Tests used:
[1] = system: K. pneumoniae 968733 (CST-R); assay: MIC assay (CLSI); assay type: cell-based, Klebsiella pneumoniae; conditions: Klebsiella pneumoniae, read-out: MIC K. pneumoniae 968733 (CST-R) Parent
Procedure: (§1) MIC assays [Clinical and Laboratory Standards Institute (CLSI) methodology] and serial passage studies were performed as described by Luther et al. ([6]). […] Resistant mutants were isolated, and their MIC values were determined and sent to Microbes NG (Birmingham, United Kingdom) for whole-genome sequencing and bioinformatic analysis.

[2] = system: K. pneumoniae ATCC 43816 (parent / WT); assay: microbe, parasite or virus in culture; conditions: Klebsiella pneumoniae
Procedure: as §1

[3] = system: K. pneumoniae NCTC 13443 (NDM-1) LptA Q62L mutant; assay: microbe, parasite or virus in culture; conditions: Klebsiella pneumoniae
Procedure: as §1

[4] = system: E. coli ATCC 25922 LptA Q62L mutant; assay: microbe, parasite or virus in culture; conditions: Escherichia coli
Procedure: as §1

[5] = system: E. coli ATCC 25922 (parent / WT); assay: microbe, parasite or virus in culture; conditions: Escherichia coli
Procedure: as §1

[6] = system: K. pneumoniae NCTC 13443 (NDM-1) (parent / WT); assay: microbe, parasite or virus in culture; conditions: Klebsiella pneumoniae
Procedure: as §1

[7] = system: K. pneumoniae ATCC 43816 LptA Q62L mutant; assay: microbe, parasite or virus in culture; conditions: Klebsiella pneumoniae
Procedure: as §1

[8] = system: Klebsiella pneumoniae NCTC 13443 YejM mutant; assay: microbe, parasite or virus in culture; conditions: Klebsiella pneumoniae, NCTC13443, read-out: MIC Klebsiella pneumoniae NCTC 13443 YejM (1x)
Procedure: as §1

[9] = system: Klebsiella pneumoniae ATCC 43816 LptA I36N mutant; assay: microbe, parasite or virus in culture; conditions: Klebsiella pneumoniae, ATCC43816, read-out: MIC Klebsiella pneumoniae ATCC 43816 LptA I36N (1x)
Procedure: as §1

[10] = system: Klebsiella pneumoniae ATCC 43816 LapB mutant; assay: microbe, parasite or virus in culture; conditions: Klebsiella pneumoniae, ATCC43816, read-out: MIC Klebsiella pneumoniae ATCC 43816 LapB (1x)
Procedure: as §1

[11] = system: Klebsiella pneumoniae ATCC 43816 PglJ, PhnJ, ThiH mutant; assay: microbe, parasite or virus in culture; conditions: Klebsiella pneumoniae, ATCC43816, read-out: MIC Klebsiella pneumoniae ATCC 43816 PglJ, PhnJ, ThiH (1x)
Procedure: as §1

[12] = system: Klebsiella pneumoniae NCTC 13443 LpxC, LpxD mutant; assay: microbe, parasite or virus in culture; conditions: Klebsiella pneumoniae, NCTC13443, read-out: MIC Klebsiella pneumoniae NCTC 13443 LpxC, LpxD (1x)
Procedure: as §1

[13] = system: Escherichia coli ATCC 25922 KdsD mutant; assay: microbe, parasite or virus in culture; conditions: Escherichia coli, ATCC25922, read-out: MIC Escherichia coli ATCC 25922 KdsD (2x)
Procedure: as §1

[14] = system: Escherichia coli ATCC 25922 LptA E84D mutant; assay: microbe, parasite or virus in culture; conditions: Escherichia coli, ATCC25922, read-out: MIC Escherichia coli ATCC 25922 LptA E84D (1x)
Procedure: as §1

[15] = system: Klebsiella pneumoniae ATCC 43816 LptA I36S mutant; assay: microbe, parasite or virus in culture; conditions: Klebsiella pneumoniae, ATCC43816, read-out: MIC Klebsiella pneumoniae ATCC 43816 LptA I36S (1x)
Procedure: as §1

[16] = system: Klebsiella pneumoniae NCTC 13443 LptA I36S mutant; assay: microbe, parasite or virus in culture; conditions: Klebsiella pneumoniae, NCTC13443, read-out: MIC Klebsiella pneumoniae NCTC 13443 LptA I36S (2x)
Procedure: as §1

[17] = system: Klebsiella pneumoniae ATCC 43816 LptA L116Q mutant; assay: microbe, parasite or virus in culture; conditions: Klebsiella pneumoniae, ATCC43816, read-out: MIC Klebsiella pneumoniae ATCC 43816 LptA L116Q (1x)
Procedure: as §1

[18] = ATCC43816, read-out: MIC K. pneumoniae ATCC 43816 Parent
[19] = ATCC25922, read-out: MIC E. coli ATCC 25922 Q62L mutant
[20] = ATCC25922, read-out: MIC E. coli ATCC 25922 Parent
[21] = NCTC13443, read-out: MIC K. pneumoniae NCTC 13443 (NDM-1) Parent

CNC(C)C1CCC(N)C(OC2C(N)CC(N)C(OC3OCC(C)(O)C(NC)C3O)C2O)O1 (stereo not shown) [Gentamicin, reference compound]
MIC [1]: 0.5 µg/mL (≈ 1.05 µM) | MIC [2, 18]: 0.5 µg/mL (≈ 1.05 µM) | MIC ([3]; NCTC13443, read-out: MIC K. pneumoniae NCTC 13443 (NDM-1) Q62L mutant): > 8 µg/mL | MIC [4, 19]: 1 µg/mL (≈ 2.09 µM) | MIC [5, 20]: 0.5 µg/mL (≈ 1.05 µM) | MIC [6, 21]: > 8 µg/mL | MIC ([7]; ATCC43816, read-out: MIC K. pneumoniae ATCC 43816 Q62L mutant): 0.5 µg/mL (≈ 1.05 µM)

CN(C)c1cc(NC(=O)CNC(C)(C)C)c(O)c2c1C[C@H]1C[C@H]3[C@H](N(C)C)C(O)=C(C(N)=O)C(=O)[C@@]3(O)C(O)=C1C2=O [Tigecycline, reference compound]
MIC [1]: 0.5 µg/mL (≈ 0.854 µM) | MIC [2, 18]: 0.5 µg/mL (≈ 0.854 µM) | MIC [4, 19]: 0.25 µg/mL (≈ 0.427 µM) | MIC [5, 20]: 0.25 µg/mL (≈ 0.427 µM) | MIC [6, 21]: 2 µg/mL (≈ 3.41 µM)

CO[C@@H]1[C@@H](OC(N)=O)[C@@H](O)[C@H](Oc2ccc3c(O)c(NC(=O)c4ccc(O)c(CC=C(C)C)c4)c(=O)oc3c2C)OC1(C)C [Novobiocin]
MIC ([2]; ATCC43816, read-out: MIC Klebsiella pneumoniae ATCC 43816 WT): > 64 µg/mL | MIC ([3]; NCTC13443, read-out: MIC Klebsiella pneumoniae NCTC 13443 LptA Q62L (5x)): > 64 µg/mL | MIC ([4]; ATCC25922, read-out: MIC Escherichia coli ATCC 25922 LptA Q62L (7x)): 64 µg/mL (≈ 104 µM) | MIC [8]: > 64 µg/mL | MIC [9]: > 64 µg/mL | MIC [10]: 32 µg/mL (≈ 52.2 µM) | MIC [11]: 32 µg/mL (≈ 52.2 µM) | MIC [12]: > 64 µg/mL | MIC ([5]; ATCC25922, read-out: MIC Escherichia coli ATCC 25922 WT): > 64 µg/mL | MIC [13]: 64 µg/mL (≈ 104 µM) | MIC ([6]; NCTC13443, read-out: MIC Klebsiella pneumoniae NCTC 13443 WT): > 64 µg/mL | MIC [14]: > 64 µg/mL | MIC [15]: > 64 µg/mL | MIC [16]: > 64 µg/mL | MIC [17]: > 64 µg/mL | MIC ([7]; ATCC43816, read-out: MIC Klebsiella pneumoniae ATCC 43816 LptA Q62L (4x)): > 64 µg/mL
